# Test results published in patent US20220332708A1 (Cytokinetics, Inc., priority 2021, published 2022).
# System: Bovine cardiac myofibrils
# Assay: Dose-dependent myofibril ATPase modulation (calcium-buffered, pyruvate kinase and lactate dehydrogenase-coupled ATPase assay at pCa25)
# Format: biochemical
# Conditions: concentration at which ATPase activity was 1.4-fold higher than the bottom of the dose curve, mean of a minimum of two independent tests
# Method: In Vitro Model of Dose-Dependent Myofibril ATPase Modulation
# Dose responses were measured using a calcium-buffered, pyruvate kinase and lactate dehydrogenase-coupled ATPase assay containing the following reagents (concentrations expressed are final assay concentrations): Potassium PIPES (12 mM), MgCl2 (2 mM), ATP (1 mM), DTT (1 mM), BSA (0.1 mg/ml), NADH (0.5 mM), PEP (1.5 mM), pyruvate kinase (4 U/ml), lactate dehydrogenase (8 U/ml), and antifoam (90 ppm). The pH was adjusted to 6.80 at 22° C. by addition of potassium hydroxide. Calcium levels were controlled by a buffering system containing 0.6 mM EGTA and varying concentrations of calcium, to achieve a free calcium concentration of 1×10^−4 M to 1×10^−8 M.
# Bovine cardiac myofibrils were obtained by homogenizing the appropriate tissue in the presence of detergent. Such treatment removes membranes and majority of soluble cytoplasmic proteins but leaves intact cardiac sarcomeric acto-myosin apparatus. Concentrations of myofibrils were adjusted to achieve the necessary rate of ATP hydrolysis (typically 0.25-1.0 mg/ml).
# Chemical entity dose responses were measured at the calcium concentration corresponding to 25% of maximal ATPase activity (pCa25), so a preliminary experiment was performed to test the response of the ATPase activity to free calcium concentrations in the range of 1×10^−4 M to 1×10^−8 M. Subsequently, the assay mixture was adjusted to the pCa25. Assays were performed by first preparing a dilution series of test chemical entity, each with an assay mixture containing potassium Pipes, MgCl2, BSA, DTT, pyruvate kinase, lactate dehydrogenase, myofibrils, antifoam, EGTA, CaCl2), and water. The assay was started by adding an equal volume of solution containing potassium Pipes, MgCl2, BSA, DTT, ATP, NADH, PEP, antifoam, and water. ATP hydrolysis was monitored by absorbance at 340 nm. The resulting dose response curve was fit by the 4 parameter equation y=Bottom+((Top−Bottom)/(1+((EC50/X)^Hill))). […] AC1.4 values reported in the table below are mean values based on a minimum of two independent tests.
row,Structure (SMILES),AC1.4 [µM]
1,"Cc1[nH]c(S(=O)(=O)NC2Cc3cc(Cl)c(Cl)cc3C2)cc1C(=O)N1CC(C)(C#N)C1 [Compound 79, 4-(3-cyano-3-methylazetidine-1-carbonyl)-N-(5,6-dichloro-2,3-dihydro-1H-inden-2-yl)-5-methyl-1H-pyrrole-2-sulfonamide]",0.0599
2,"Cc1[nH]c(S(=O)(=O)N[C@@H]2CCc3c([nH]c4ccccc34)C2)cc1C(=O)N1CC(F)(F)C1 [Compound 42, (R)-4-(3,3-difluoroazetidine-1-carbonyl)-5-methyl-N-(2,3,4,9-tetrahydro-1H-carbazol-2-yl)-1H-pyrrole-2-sulfonamide]",0.06395
3,"Cc1[nH]c(S(=O)(=O)N[C@@H]2COc3cc(F)c(Cl)cc3C2)cc1C(=O)N1CC(C)(C#N)C1 [Compound 73, (S)-N-(6-chloro-7-fluorochroman-3-yl)-4-(3-cyano-3-methylazetidine-1-carbonyl)-5-methyl-1H-pyrrole-2-sulfonamide]",0.0793
4,"Cc1[nH]c(S(=O)(=O)N[C@]2(Cc3ccc(Cl)cc3)CCOC2)cc1C(=O)NCC(F)F (single isomer, unassigned) [Compound 65]",3.2638
5,"Cc1[nH]c(S(=O)(=O)N[C@@H]2COc3cc(F)c(F)cc3C2)cc1C(=O)N1CC(C)(C#N)C1 [Compound 70, (S)-4-(3-cyano-3-methylazetidine-1-carbonyl)-N-(6,7-difluorochroman-3-yl)-5-methyl-1H-pyrrole-2-sulfonamide]",0.3162
6,"Cc1[nH]c(S(=O)(=O)N[C@]2(Cc3ccc(Cl)cc3)CCOC2)cc1C(=O)N1CC(F)(F)C1 [Compound 64, (R)-N-(3-(4-chlorobenzyl)tetrahydrofuran-3-yl)-4-(3,3-difluoroazetidine-1-carbonyl)-5-methyl-1H-pyrrole-2-sulfonamide]",0.3886
7,"Cc1[nH]c(S(=O)(=O)N[C@@H]2Cc3ccc(C(F)(F)F)cc3C2)cc1C(=O)N1CC(C)(C#N)C1 (single isomer, unassigned) [Compound 76]",0.1121
8,Cc1[nH]c(S(=O)(=O)N[C@@H]2Cc3cc(F)c(Cl)cc3[C@H]2O)cc1C(=O)N1CC(C)(C#N)C1 [Compound 89],0.2521
9,"Cc1[nH]c(S(=O)(=O)N[C@@H]2Cc3cc(Cl)c(Cl)cc3[C@@]2(C)O)cc1C(=O)N1CC(C)(C#N)C1 [Compound 82, 4-(3-cyano-3-methylazetidine-1-carbonyl)-N-((1R,2R)-5,6-dichloro-1-hydroxy-1-methyl-2,3-dihydro-1H-inden-2-yl)-5-methyl-1H-pyrrole-2-sulfonamide]",0.6173
10,"Cc1[nH]c(S(=O)(=O)N[C@H]2Cc3cc(F)c(Cl)cc3C2)cc1C(=O)N1CC(C)(C#N)C1 (single isomer, unassigned) [Compound 84]",0.303
11,"Cc1[nH]c(S(=O)(=O)N[C@H]2COc3cc(Cl)ccc3C2)cc1C(=O)N1CC(C)(C#N)C1 (stereo in doubt) [Compound 16, N-(7-chlorochroman-3-yl)-4-(3-cyano-3-methylazetidine-1-carbonyl)-5-methyl-1H-pyrrole-2-sulfonamide]",8.4932
12,"[2H]C([2H])([2H])c1[nH]c(S(=O)(=O)N[C@@H]2Cc3cc(F)c(Cl)cc3C2)cc1C(=O)N1CC(OC(F)(F)F)C1 [Compound 98, (R)-N-(5-chloro-6-fluoro-2,3-dihydro-1H-inden-2-yl)-5-(methyl-d3)-4-(3-(trifluoromethoxy)azetidine-l-carbonyl)-1H-pyrrole-2-sulfonamide]",0.6667
13,"Cc1cc(S(=O)(=O)N[C@@H]2COc3cc(F)c(Cl)cc3[C@@H]2O)cc(N2CC(OC(F)F)C2)n1 [Compound 88, N-((3R,4S)-6-chloro-7-fluoro-4-hydroxychroman-3-yl)-2-(3-(difluoromethoxy)azetidin-1-yl)-6-methylpyridine-4-sulfonamide]",2.209
14,"CNc1cc2c(cc1S(=O)(=O)N[C@H]1C[C@@H](Nc3ccccc3F)C1)c(=O)[nH]c(=O)n2C [Compound 18, N-((cis)-3-((2-fluorophenyl)amino)cyclobutyl)-1-methyl-7-(methylamino)-2,4-dioxo-1,2,3,4-tetrahydroquinazoline-6-sulfonamide]",0.8832
15,CNc1cc2c(cc1S(=O)(=O)NCCc1cc3ccccc3[nH]1)c(=O)[nH]c(=O)n2C [Compound 21],4.8236
16,"Cc1[nH]c(S(=O)(=O)NC23CC(c4ccccc4)(C2)C3)cc1C(=O)N1CC(C)(C#N)C1 [Compound 52, 4-(3-Cyano-3-methylazetidine-1-carbonyl)-5-methyl-N-(3-phenylbicyclo[1.1.1]pentan-l-yl)-1H-pyrrole-2-sulfonamide]",1.4557
17,"CNc1cc2nc(C)[nH]c(=O)c2cc1S(=O)(=O)Nc1ccc(-c2ccccc2)cc1 [Compound 4, N-([1,1′-biphenyl]-4-yl)-2-methyl-7-(methylamino)-4-oxo-3,4-dihydroquinazoline-6-sulfonamide]",0.1832
18,"Cc1[nH]c(S(=O)(=O)N[C@@H]2CCc3c([nH]c4ccccc34)C2)cc1C(=O)N1CC(C)(C#N)C1 [Compound 48, (R)-4-(3-cyano-3-methylazetidine-1-carbonyl)-5-methyl-N-(2,3,4,9-tetrahydro-1H-carbazol-2-yl)-1H-pyrrole-2-sulfonamide]",0.04675
19,"CNc1cc2c(cc1S(=O)(=O)N[C@H]1C[C@@H](Nc3cccc(F)c3)C1)c(=O)[nH]c(=O)n2C [Compound 14, N-((cis)-3-((3-fluorophenyl)amino)cyclobutyl)-1-methyl-7-(methylamino)-2,4-dioxo-1,2,3,4-tetrahydroquinazoline-6-sulfonamide]",0.2006
20,"Cc1[nH]c(S(=O)(=O)N[C@@H]2COc3ccc(Cl)cc3C2)cc1C(=O)N1CC(C)(C#N)C1 [Compound 71, (S)-N-(6-chlorochroman-3-yl)-4-(3-cyano-3-methylazetidine-1-carbonyl)-5-methyl-1H-pyrrole-2-sulfonamide]",0.3054
21,"CNc1cc2c(cc1S(=O)(=O)N[C@H]1C[C@H](c3cc(C(F)(F)F)ccn3)C1)c(=O)[nH]c(=O)n2C [Compound 60, 1-Methyl-7-(methylamino)-2,4-dioxo-N-((trans)-3-(4-(trifluoromethyl)pyridin-2-yl)cyclobutyl)-1,2,3,4-tetrahydroquinazoline-6-sulfonamide]",2.062
22,CNc1cc2c(cc1S(=O)(=O)N[C@H]1CC[C@H](c3ccccc3)CC1)c(=O)[nH]c(=O)n2C [Compound 12],1.6528
23,"Cc1cc(S(=O)(=O)N[C@@H]2COc3cc(F)c(Cl)cc3[C@@H]2O)cc(N2CC(C#N)C2)n1 [Compound 85, N-((3R,4S)-6-chloro-7-fluoro-4-hydroxychroman-3-yl)-2-(3-cyanoazetidin-1-yl)-6-methylpyridine-4-sulfonamide]",1.3618
24,"Cc1[nH]c(S(=O)(=O)N[C@H]2C[C@H](c3cc(C(F)(F)F)ccn3)C2)cc1C(=O)N1CC(C#N)C1 [Compound 57, 4-(3-Cyanoazetidine-1-carbonyl)-5-methyl-N-((trans)-3-(4-(trifluoromethyl)pyridin-2-yl)cyclobutyl)-1H-pyrrole-2-sulfonamide]",0.8572
25,Cc1[nH]c(S(=O)(=O)N[C@H]2C[C@H](c3cc(C(F)(F)F)ccn3)C2)cc1C(=O)N1CC(C)(C#N)C1 [Compound 58],1.0081
26,"Cc1[nH]c(S(=O)(=O)N[C@@H]2Cc3cc(F)c(Cl)cc3C2)cc1C(=O)N1CC(C)(C#N)C1 (single isomer, unassigned) [Compound 83]",0.06985
27,"Cc1cnc(-c2cc(S(=O)(=O)N[C@H]3C[C@H](n4cc(C(F)(F)F)c(C)n4)C3)[nH]c2C)o1 [Compound 66, 5-Methyl-N-((trans)-3-(3-methyl-4-(trifluoromethyl)-1H-pyrazol-1-yl)cyclobutyl)-4-(5-methyloxazol-2-yl)-1H-pyrrole-2-sulfonamide]",1.1207
28,"Cc1[nH]c(S(=O)(=O)N[C@H]2Cc3cc(Cl)c(Cl)cc3[C@@]2(C)O)cc1C(=O)N1CC(C)(C#N)C1 (single isomer, unassigned) [Compound 92]",0.6294
29,"Cc1[nH]c(S(=O)(=O)N[C@@H]2CCc3c([nH]c4ccccc34)C2)cc1C1=NCC(C)(C)O1 [Compound 68, (R)-4-(5,5-dimethyl-4,5-dihydrooxazol-2-yl)-5-methyl-N-(2,3,4,9-tetrahydro-1H-carbazol-2-yl)-1H-pyrrole-2-sulfonamide]",0.1213
30,"CNc1ccc(S(=O)(=O)Nc2ccc(N3C[C@H](C)C[C@@H](C)C3)nc2)cc1C(N)=O (relative stereo) [Compound 3, 5-(N-(6-(trans-3,5-dimethylpiperidin-1-yl)pyridin-3-yl)sulfamoyl)-2-(methylamino)benzamide]",11.94
